# Tests used:
# [1] = target: T1, Hsp70 (Heat Shock Protein 70 1A) (Homo sapiens, UniProt P0DMV8); test: SPR (Biacore […]), single-site model; assay type: binding
# T1 construct: gene HSPA1A; recombinant Hsp70 immobilized on CM5 chip
# [2] = target: T1, Hsp70 (Heat Shock Protein 70 1A); test: SPR (Biacore […]), single-site model; positive control; assay type: binding
# T1 sequence (P0DMV8 2-641): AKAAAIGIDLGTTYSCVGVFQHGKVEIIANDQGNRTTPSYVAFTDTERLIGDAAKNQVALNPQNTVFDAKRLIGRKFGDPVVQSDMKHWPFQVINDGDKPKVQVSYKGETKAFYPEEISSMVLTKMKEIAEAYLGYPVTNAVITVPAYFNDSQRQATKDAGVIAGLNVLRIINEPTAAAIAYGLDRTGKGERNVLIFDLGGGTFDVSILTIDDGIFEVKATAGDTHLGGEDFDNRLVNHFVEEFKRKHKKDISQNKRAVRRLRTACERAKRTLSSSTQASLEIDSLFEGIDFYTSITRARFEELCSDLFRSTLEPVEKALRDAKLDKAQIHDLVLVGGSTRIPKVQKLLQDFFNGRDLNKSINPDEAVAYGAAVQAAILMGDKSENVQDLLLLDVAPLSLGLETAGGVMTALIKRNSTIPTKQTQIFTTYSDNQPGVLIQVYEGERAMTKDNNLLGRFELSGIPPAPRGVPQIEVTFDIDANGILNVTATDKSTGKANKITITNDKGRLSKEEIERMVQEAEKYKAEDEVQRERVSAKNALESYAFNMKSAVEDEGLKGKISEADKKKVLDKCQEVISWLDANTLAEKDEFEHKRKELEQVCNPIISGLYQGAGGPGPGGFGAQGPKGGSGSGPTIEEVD
SMILES,Kd [1],Kd [2]
"CC1=CCC2C(C)(C)CCCC2(C)C1CC(O)C1=CC(=O)OC1 (single isomer, unassigned; ent-12) [compound 4, ent-12-hydroxylabda-7,13-dien-15,16-olide]",1000 nM,–
C=C1C(=O)[C@]23[C@H](O)[C@H]1CC[C@H]2[C@@]12CO[C@]3(O)[C@@H](O)[C@@H]1C(C)(C)CC[C@@H]2O [oridonin],–,81.4 nM

# From PMC10347124, “Exploring the Anticancer Potential of Premna resinosa (Hochst.) Leaf Surface Extract: Discovering New Diterpenes as Heat Shock Protein 70 (Hsp70) Binding Agents” (Plants, 2023)
